# Experiments:
# Format in all cases: in vivo
# [1] = system: Erysiphe graminis tritici (powdery mildew); test: Greenhouse Test 1, foliar spray fungicide screen (POWD MDEW), host wheat; conditions: disease control rating, 400 ppm (+++ at 100 ppm)
# [2] = system: Pyricularia oryzae (rice blast); conditions: disease control rating, foliar spray, host rice; 400 ppm (+++ at 100 ppm)
# [3] = system: Puccinia recondita tritici (leaf rust); test: Greenhouse Test 1, foliar spray fungicide screen (LEAF RUST), host wheat; conditions: disease control rating, 400 ppm (+++ at 100 ppm)
# [4] = system: Botrytis cinerea (gray mold); test: Greenhouse Test 1, foliar spray fungicide screen (GRAY MOLD), host grape berries; conditions: disease control rating, 400 ppm (+++ at 100 ppm)
# [5] = system: Pseudoperonospora cubensis (downy mildew); test: Greenhouse Test 1, foliar spray fungicide screen (DOWN MDEW), host squash; conditions: disease control rating, 400 ppm (+++ at 100 ppm)
# [6] = system: Southern corn rootworm (Diabrotica undecimpuctata howardi Barber); test: Mite/insect screen, soil treatment (CRW); conditions: percent mortality, soil treatment; for mortality at 12 ppm / mortality at 24 ppm: Diabrotica, read-out: CRW RESULTS %; for mortality at 12 ppm / CRW RESULTS %: CRW rate 12.00 ppm; for mortality at 24 ppm: CRW rate 24.00 ppm
# Procedure: (§1) The compounds of Examples 1-203 were tested for miticidal and insecticidal activity in the following mite/insect screen.
# (§2) Each test compound was formulated by dissolving the compound in acetone/alcohol (50:50) mixture containing 23 g of "TOXIMUL R" (sulfonate/nonionic emulsifier blend) and 13 g of "TOXIMUL S" (sulfonate/nonionic emulsifier blend) per liter. These mixtures were then diluted with water to give the indicated concentrations.
# Activity on Southern corn rootworm (Diabrotica undecimpuctata howardi Barber) was evaluated by adding two ml of tap water, a presoaked corn seed, and 15 g of dry sandy soil to a one ounce plastic container. The soil was treated with 1 mL of test solution containing a pre-determined concentration of test compound. After six to 12 hours of drying, five 2-3 instar corn rootworm larvae were added to the individual cups, which were then capped and held at 23°C.
# (§3) After standard exposure periods, percent mortality and phytotoxicity were evaluated. […]
# [7] = system: southern armyworm (Spodopetra eridania Cramer); test: Mite/insect screen, sprayed squash leaves (SAW); conditions: percent mortality; for mortality at 200 ppm / mortality at 400 ppm: Spodoptera eridania, read-out: SAW RESULTS %; for mortality at 200 ppm / SAW RESULTS %: spray rate 200 ppm; for mortality at 400 ppm: spray rate 400 ppm
# Procedure: as §1, §2
# (§4) Other plants in the same treatment pot were left uninfested. The leaves were then sprayed with 5 ml of test solution using a DeVilbiss atomizing sprayer at 10 psi. Both surfaces of the leaves were covered until runoff, and then allowed to dry for one hour. Two uninfested leaves were then excised and placed into a Petri dish containing larval southern armyworm (Spodopetra eridania Cramer).
# as §3
# [8] = system: Twospotted spider mites (Tetranychus urticae Koch); test: Mite/insect screen, sprayed squash cotyledons (SM); conditions: percent mortality; for mortality at 200 ppm / mortality at 400 ppm: Tetranychus urticae, read-out: SM RESULTS %; for mortality at 200 ppm / SM RESULTS %: spray rate 200 ppm; for mortality at 400 ppm: spray rate 400 ppm
# Procedure: as §1, §2, §4, §3
# [9] = system: melon aphids (Aphis gossypii Glover); test: Mite/insect screen, sprayed squash cotyledons (MA); conditions: percent mortality; for mortality at 200 ppm / mortality at 400 ppm: Aphis gossypii, read-out: MA RESULTS %; for mortality at 200 ppm / MA RESULTS %: spray rate 200 ppm; for mortality at 400 ppm: spray rate 400 ppm
# Procedure: as §1, §2, §4, §3
SMILES,POWD MDEW [1],RICE BLAST [2],LEAF RUST [3],GRAY MOLD [4],DOWN MDEW [5],mortality at 12 ppm [6],mortality at 24 ppm [6],mortality at 200 ppm [7],mortality at 400 ppm [7],mortality at 200 ppm [8],mortality at 400 ppm [8],mortality at 200 ppm [9],mortality at 400 ppm [9],CRW RESULTS % [6],SAW RESULTS % [7],SM RESULTS % [8],MA RESULTS % [9]
"Fc1cccc2c(OCCc3ccc(Cl)cc3)ncnc12 [Example 55, 4-[2-(4-chlorophenyl)ethoxy]-8-fluoroquinazoline]",+++ (+++ = 90-100% control at 100 ppm),+++ (+++ = 90-100% control at 100 ppm),+++ (+++ = 90-100% control at 100 ppm),- (- = 0-19% control at 400 ppm),+++ (+++ = 90-100% control at 100 ppm),0%,0%,100%,0%,100%,0%,100%,0%,,,,
"Fc1cccc2c(OCCc3ccccc3C(F)(F)F)ncnc12 [Example 56, 8-fluoro-4-[2-[2-(trifluoromethyl)phenyl]ethoxy]quinazoline]",+++ (+++ = 90-100% control at 100 ppm),+++ (+++ = 90-100% control at 100 ppm),+++ (+++ = 90-100% control at 100 ppm),- (- = 0-19% control at 400 ppm),+++ (+++ = 90-100% control at 100 ppm),0%,0%,0%,0%,40%,0%,100%,0%,,,,
"Clc1ccc2ncnc(NCCc3ccccc3Oc3ccccc3)c2c1 [Example 57, 6-chloro-N-[2-(2-phenoxyphenyl)ethyl]-4-quinazolinamine]",- (- = 0-19% control at 400 ppm),- (- = 0-19% control at 400 ppm),- (- = 0-19% control at 400 ppm),- (- = 0-19% control at 400 ppm),- (- = 0-19% control at 400 ppm),0%,0%,80%,0%,0%,0%,0%,0%,0%,100%,0%,0%
"CC(COc1ncnc2ccccc12)c1ccccc1 (stereo not drawn) [Example 60, 4-(2-phenylpropoxy)quinazoline]",+ (+ = 20-89% control at 400 ppm),+++ (+++ = 90-100% control at 100 ppm),+ (+ = 20-89% control at 400 ppm),- (- = 0-19% control at 400 ppm),++ (++ = 90-100% control at 400 ppm),,0%,,0%,,100%,,100%,,,,
"Fc1cccc2c(NCC(c3ccccc3)c3ccccc3)ncnc12 [Example 61, N-(2,2-diphenylethyl)-8-fluoro-4-quinazolinamine]",- (- = 0-19% control at 400 ppm),- (- = 0-19% control at 400 ppm),- (- = 0-19% control at 400 ppm),- (- = 0-19% control at 400 ppm),- (- = 0-19% control at 400 ppm),0%,0%,0%,0%,0%,0%,0%,0%,0%,0%,0%,0%
"CCc1ccc(CCOc2ncnc3ccccc23)cc1 [Example 65, 4-[2-(4-ethylphenyl)ethoxy]quinazoline]",+++ (+++ = 90-100% control at 100 ppm),+++ (+++ = 90-100% control at 100 ppm),+++ (+++ = 90-100% control at 100 ppm),- (- = 0-19% control at 400 ppm),+++ (+++ = 90-100% control at 100 ppm),,0%,,0%,,100%,,100%,,,,
